How the values were obtained:
Assay in all cases: Combined use with irradiation (IR), Bliss Independence model (Cell Titer Glo, 7 days)
Format in all cases: cell-based
Conditions in all cases: combination with IR
DLD-1 = system: DLD-1
Procedure: (§1) DLD-1 colorectal adenocarcinoma cells, NUGC4 gastric cancer cells, NCI-H460 non-small cell lung cancer cells, SHP-77 small cell lung cancer cells, and LNCAP prostate cancer cells were cultured in a 1640 medium containing 10% fetal bovine serum. MDA-MB-436 breast cancer cells were cultured in a DMEM medium containing 10% fetal bovine serum. OVCAR3 ovarian cancer cells were cultured in a 1640 medium containing 20% fetal bovine serum and 10 µg/mL bovine insulin. The cells were all cultured at 37 °C with 5% CO2. Cells at the logarithmic growth phase were available for the experiment.
(§2) 100 µL of the cell medium was added to rows A and H and columns 1 and 12 of a 96-well cell culture plate. Cultured cells were resuspended (adherent cells were digested with trypsin) and counted to give information on cell density and viability. The dilution ratio of the resuspended cells required for inoculating a fixed number of cells into 90 µL of the medium in each culture well was calculated based on the cell density information. After the resuspended cells were diluted with the corresponding medium, 90 µL of the diluted cells were transferred to columns 2-11 of rows B-G of a 96-well cell culture plate using an Eppendorf multi-channel pipette (60 wells in total for each plate). The cell culture plate was incubated overnight in an incubator at 37 °C with 5% CO2.
(§3) The test compound was dissolved in DMSO to give a 10 mM stock solution for later use. In the experiment, the compound was further diluted to the corresponding concentration according to the concentration designed in the experiment, and based on this concentration, 4-fold serial gradient dilution was performed to give a total of 10 dose concentrations (the lowest dose was 0, and other specific concentration values were shown in FIG. 2). 10 µL of the diluted compound was added to the corresponding cell plate well, such that the final concentration of DMSO was 0.25%. The compound was incubated with the cells in an incubator at 37 °C with 5% CO2 for 4 h, and then the cell plate was transferred to Cellrad for irradiation (abbreviated as IR) at different doses (see FIG. 2 for specific dose values). After the irradiation was completed, the cell plate was incubated in an incubator at 37 °C with 5% CO2 for another 7 days, Cell Titer Glo was added at 50 µL/well, and the luminescence value of each well was read using an Envision microplate reader.
(§4) The luminescence value of the well containing only the cell medium was taken as the background (RLUbackground, corresponding cell survival rate to be 0%), the cell well containing only 0.25% DMSO without the compound and the irradiation treatment was taken as the maximum signal (RLUDMSO, corresponding cell survival rate to be 100%), and the luminescence values of the remaining wells containing cells and compounds at different concentrations were taken as RLUsample. The survival rate of each cell well was calculated as follows: Survival rate (%) = (RLUsample−RLUbackground)/(RLUDMSO−RLUbackground) × 100% [formula]
(§5) The interaction between the drug and irradiation (synergistic, independent, or antagonistic) was statistically analyzed by the Bliss Independence model using Combenefit software (Bliss, C.I., Bacteriol. Rev., 1956, 20, 243-258). The model assumes that the drug and irradiation act independently. The theoretical expected action curve of the combination was calculated from the following equation: Bliss effect = effect A + effect B−effect A × effect B [formula] wherein effect A is the effect of drug A at a particular concentration. Effect B is the effect of irradiation at a particular dose.
(§6) The Bliss effect is the expected effect when the combination of the drug and irradiation is administered precisely. A negative Bliss score (δ = observed effect - Bliss effect) indicates an antagonistic effect between the drug and irradiation if the observed effect (i.e., the experimentally measured combined effect) is less than the Bliss effect. […]

LNCAP = system: LNCAP
Procedure: as §1, §2, §3, §4, §5, §6

MDA-MB-436 = system: MDA-MB-436
Procedure: as §1, §2, §3, §4, §5, §6

NCI-H460 = system: NCI-H460
Procedure: as §1, §2, §3, §4, §5, §6

NUGC4 = system: NUGC4
Procedure: as §1, §2, §3, §4, §5, §6

OVCAR3 = system: OVCAR3
Procedure: as §1, §2, §3, §4, §5, §6

SHP-77 = system: SHP-77
Procedure: as §1, §2, §3, §4, §5, §6

Measured: Combined effect

COc1ccc(Cl)cc1-c1cc(C)ncc1C(=O)Nc1nc2ncc(-c3ccc(C#N)cc3)nc2s1.[Na] [Sodium salt of compound I, Sodium Salt of 4-(5-Chloro-2-methoxyphenyl)-N-[6-(4-cyanophenyl)thiazolo[4,5-b]pyrazin-2-yl]-6-methylnicotinamide]
Synergistic: all assays above

Reference: EP4744665A1, “COMBINATION OF POLQ INHIBITOR COMPOUND AND ANTI-CANCER THERAPEUTIC AGENT OR RADIOTHERAPY” (Simcere Zaiming Pharmaceutical Co., Ltd., priority 2023, dated 2025)
